Calls of active or inactive are those of the source. The calls are words filed in the database; no cut-off is given here.
Tests used:
[1] = target: T1, Bifunctional epoxide hydrolase 2 (Homo sapiens, UniProt P34913); assay: Displacement of (1R,3S)-N-(4-methoxy-2-(trifluoromethyl)benzyl)-3-((7-nitrobenzo[c][1,2,5]-oxadiazol-4-yl)amino)cyclohexane-1-carboxamide from NanoLuc-fused human sEH ( 1 to 555 residues) expressed in HEK293T cells incubated for 5 hrs by NanoBRET analysis; format: cell-based; conditions: read-out: Ki(app)
T1 sequence (P34913 whole entry): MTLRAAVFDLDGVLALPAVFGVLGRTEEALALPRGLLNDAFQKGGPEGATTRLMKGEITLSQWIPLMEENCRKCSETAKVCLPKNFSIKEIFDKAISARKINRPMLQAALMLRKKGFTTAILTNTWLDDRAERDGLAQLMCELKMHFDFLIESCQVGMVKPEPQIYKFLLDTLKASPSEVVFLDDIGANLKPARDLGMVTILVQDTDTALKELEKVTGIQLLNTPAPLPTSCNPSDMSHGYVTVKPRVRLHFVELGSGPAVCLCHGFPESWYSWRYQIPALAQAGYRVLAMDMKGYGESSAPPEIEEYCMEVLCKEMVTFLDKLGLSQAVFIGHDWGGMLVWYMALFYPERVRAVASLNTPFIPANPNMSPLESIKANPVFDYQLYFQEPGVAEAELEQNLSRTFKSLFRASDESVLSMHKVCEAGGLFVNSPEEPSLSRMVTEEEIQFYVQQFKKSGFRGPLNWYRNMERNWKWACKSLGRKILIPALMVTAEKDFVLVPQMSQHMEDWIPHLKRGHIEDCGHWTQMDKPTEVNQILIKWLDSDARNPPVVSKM

[2] = target: T2, Bifunctional epoxide hydrolase 2 (Homo sapiens) (UniProt P34913); assay: (§1) Inhibition of C-terminal domain of human sEH-H assessed as reduction in fluorescent naphthalene aldehyde formation using PHOME as substrate preincubated with enzyme for 30 mins followed by substrate addition and measured every minute for 45 mins by fluorescence based analysis; conditions: time 75.0 min, DDE = dose-dependent effect
T2 sequence (whole entry): T1 sequence (P34913 whole entry)

[3] = target: T1, Bifunctional epoxide hydrolase 2; assay: as §1
[4] = target: T3, Bifunctional epoxide hydrolase 2 (Mus musculus) (UniProt P34914); assay: (§2) Inhibition of C-terminal domain of mouse sEH-H assessed as reduction in fluorescent naphthalene aldehyde formation using PHOME as substrate preincubated with enzyme for 30 mins followed by substrate addition and measured every minute for 45 mins by fluorescence based analysis; conditions: time 75.0 min, DDE = dose-dependent effect
T3 sequence (whole entry): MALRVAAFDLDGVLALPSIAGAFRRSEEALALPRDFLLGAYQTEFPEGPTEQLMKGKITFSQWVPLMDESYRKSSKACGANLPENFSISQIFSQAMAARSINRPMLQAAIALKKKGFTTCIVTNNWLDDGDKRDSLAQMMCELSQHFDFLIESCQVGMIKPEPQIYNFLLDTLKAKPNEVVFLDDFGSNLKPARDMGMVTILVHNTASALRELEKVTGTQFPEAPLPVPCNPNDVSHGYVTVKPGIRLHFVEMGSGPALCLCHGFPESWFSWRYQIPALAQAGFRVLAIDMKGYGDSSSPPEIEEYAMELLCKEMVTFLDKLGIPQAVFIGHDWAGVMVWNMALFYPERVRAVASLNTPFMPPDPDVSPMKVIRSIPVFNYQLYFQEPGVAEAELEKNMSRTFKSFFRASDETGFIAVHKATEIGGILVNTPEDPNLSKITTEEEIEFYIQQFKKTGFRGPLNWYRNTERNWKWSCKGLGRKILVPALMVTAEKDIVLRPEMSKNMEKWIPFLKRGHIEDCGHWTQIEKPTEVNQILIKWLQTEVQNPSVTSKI

[5] = target: T4, Bifunctional epoxide hydrolase 2 (Mus musculus, UniProt P34914); assay: as §2
T4 sequence (P34914 whole entry): T3 sequence (whole entry)

[6] = target: T2, Bifunctional epoxide hydrolase 2 (Homo sapiens); assay: Binding affinity to C-terminal domain of human sEH-H at 20 nM incubated for 1 hr by fluorescence polarization assay
[7] = target: T1, Bifunctional epoxide hydrolase 2; assay: Binding affinity to NanoLuc-fused human sEH ( 1 to 555 residues) expressed in HEK293T cells incubated for 5 hrs by NanoBRET analysis; format: cell-based
[8] = target: T2, Bifunctional epoxide hydrolase 2 (Homo sapiens); assay: Binding affinity to human full length sEH (1 to 555 residues) expressed in doxycycline-induced HEK293 cells at 300 nM incubated for 5 hrs by Hoechst 33342 staining based fluorescence microscopy; format: cell-based
[9] = target: T3, Bifunctional epoxide hydrolase 2 (Mus musculus); assay: Binding affinity to sEH in C57BL/6J mouse astrocytes at 10 uM incubated for 5 hrs by DAPI staining based immunocytochemistry; format: cell-based; conditions: Astrocyte
[10] = target: T1, Bifunctional epoxide hydrolase 2; assay: Inhibition of human sEH BacMam transduced HEK293 cells assessed as reduction in 14,15-DHET formation using 14,15-EET as substrate preincubated for 30 mins followed by susbtrate addition and measured after 90 mins by fluorescence polarization assay; format: cell-based

| Ki [1] | inhibition [2] | IC50 [3] | inhibition [4] | IC50 [5] | Activity [6] | Kd [7] | Activity [8] | Activity [9] | IC50 [10] | SMILES |
| --- | --- | --- | --- | --- | --- | --- | --- | --- | --- | --- |
| 0.024 µM |  |  |  |  |  |  |  |  |  | CNc1nc(C)nc(N[C@H]2CCC[C@@H](C(=O)NCc3ccc(C#N)cc3C(F)(F)F)C2)n1 [GSK2256294] |
|  | Dde | 0.00143 µM | Dde | 0.00771 µM | Active | 0.006 µM | Active | Active |  | COc1ccc(CNC(=O)[C@@H]2CCC[C@H](Nc3ccc([N+](=O)[O-])c4nonc34)C2)c(C(F)(F)F)c1 |
| 0.016 µM |  | 0.0026 µM |  |  |  |  |  |  | 0.034 µM | O=C(O)CCCCCCCCCCNC(=O)NC12CC3CC(CC(C3)C1)C2 |
| 0.583 µM |  | 0.0294 µM |  |  |  |  |  |  |  | O=C(NCc1ccc(NS(=O)(=O)C2CC2)cc1C(F)(F)F)c1ccc2[nH]ccc2c1 |

— ChEMBL document CHEMBL5120942, “Designing a Small Fluorescent Inhibitor to Investigate Soluble Epoxide Hydrolase Engagement in Living Cells” (ACS Med Chem Lett, 2022)
